Measured values taken from US11672766B2, “Therapeutic cationic peptides and unimolecular nanoparticles for efficient delivery thereof” (Wisconsin Alumni Research Foundation, priority 2017, dated 2023).
Where no end group is shown, it is not given here. [ ]: non-standard residue; d: D form. Arg(Me2a) = CN(C)C(=N)NCCC[C@H](N)C(=O)O

Assays:
[1] = biological target: T1, histone H3 methylation by CARM1 (Homo sapiens, UniProt Q86X55); test: In vitro methylation assay of control substrate histone H3 by CARM1; format: biochemical; settings: FBP 100 μM or TEPP-46 1 μM
T1 construct: HaloTag (cleaved yes); made in house; host or cells: HEK293T (transient transfection)
T1 sequence (Q86X55 1-608): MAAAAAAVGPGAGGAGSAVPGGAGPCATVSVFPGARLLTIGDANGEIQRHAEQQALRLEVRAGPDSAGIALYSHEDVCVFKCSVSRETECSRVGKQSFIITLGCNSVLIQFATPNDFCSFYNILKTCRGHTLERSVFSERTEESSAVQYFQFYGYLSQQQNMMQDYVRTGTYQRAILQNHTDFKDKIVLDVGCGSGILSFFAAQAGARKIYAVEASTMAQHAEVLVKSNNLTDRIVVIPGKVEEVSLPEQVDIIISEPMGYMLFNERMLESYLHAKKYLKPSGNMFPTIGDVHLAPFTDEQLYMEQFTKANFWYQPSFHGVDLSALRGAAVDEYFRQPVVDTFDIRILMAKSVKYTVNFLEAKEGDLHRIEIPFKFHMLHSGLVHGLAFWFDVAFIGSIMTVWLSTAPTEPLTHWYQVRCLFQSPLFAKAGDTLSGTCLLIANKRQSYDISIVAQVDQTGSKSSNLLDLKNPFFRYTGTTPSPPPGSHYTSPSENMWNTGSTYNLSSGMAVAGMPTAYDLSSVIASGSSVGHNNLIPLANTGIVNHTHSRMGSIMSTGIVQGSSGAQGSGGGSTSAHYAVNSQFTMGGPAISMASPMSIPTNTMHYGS
Protocol: (§1) In vitro methylation assay was performed as previously described (Wang et al., 2014). Purified histones or purified substrate proteins were mixed with the protein arginine methyltransferases (PRMTs) in the presence of ^3H-SAM. [^3H]-labeled substrates were resolved by SDS-PAGE and detected by autoradiography.

[2] = biological target: T2, CARM1-mediated methylation of PKM2 (Homo sapiens, UniProt Q86X55); test: In vitro methylation assay of PKM2 by CARM1 (3H-SAM, autoradiography); format: biochemical; settings: for PKM2 methylation by CARM1: FBP 100 μM or TEPP-46 1 μM; for CARM1-mediated methylation of PKM2: free peptide or peptide encapsulated in UMNP
T2 construct: HaloTag (cleaved yes); made in house; host or cells: CARM1: HEK293T (transient)
T2 sequence (Q86X55 1-608): T1 sequence (Q86X55 1-608)
Protocol: as §1
Human PRMT1-8 cDNAs were cloned into pFN21K HaloTag CMV Flexi Vector (Promega) (Wang et al., 2014). These plasmids were transiently transfected into HEK293T cells for 36 hours. The cells were harvested in binding buffer (HEPES 50 mM, NaCl 150 mM, NP40 0.005%, 0.5 mM EDTA, pH 7.5) and sonicated at 35% power (amplitude) with 10 s on, 30 s off, 4-6 cycles on ice, and then centrifuged and collected the supernatant. The supernatant was incubated with HaloLink resin (Promega) overnight at 4° C. The beads were washed with binding buffer twice and then incubated with 1M urea in binding buffer for 20 min at room temperature. After washing the beads with binding buffer twice, the proteins were eluted with 20 μg/mL TEV in cleavage buffer (DTT 1 mM in binding buffer). For purification of Flag-tagged proteins, the plasmids were transiently transfected into HEK293T cells for 36 hours. The cells were harvested in lysis buffer on ice for 30 min, and then centrifuged and collected the supernatant. Flag M2 Affinity Gel was added into the supernatant and incubated for 2 hours, and then the Gel was washed with PBS four times. The proteins were eluted by 150 μg/mL 3× Flag peptide in 0.5 M Tris HCl and 1M NaCl pH 7.5. For His-tagged or GST-tagged proteins purification, PKM1 and PKM2 cDNA were inserted pET-21a (+) or pGEX-2T plasmid. The plasmids were then transfected into E. coli BL-21 competent cells. Protein expression was induced by the presence of 0.5 mM IPTG overnight at 20° C. After centrifugation, pellet was resuspended in sonication buffer (1% Triton X-100, 1 mM EDTA, 1 mM DTT in PBS) and sonicated at 50% power (amplitude) with 30 s on, 30 s off, 10 cycles on ice or until the suspension became clear. After centrifugation, the supernatant was incubated with Ni-NTA Agarose or Glutathione Agarose Resin for 2 hours at room temperature. For His-tagged proteins, Beads were washed with PBS twice, then washed with 10 mM imidazole in elution buffer (1% Triton X-100, 0.1% glycerol in PBS) once. The His-tagged proteins were eluted with 250 mM imidazole. For GST-tagged proteins, beads were washed with PBS four times and eluted with glutathione elution buffer (50 mM Glutathione, 50 mM Tris HCl, pH 8.0, 100 mM NaCl, and 1 mM EDTA). The eluted proteins were dialyzed with PBS containing 0.1% glycerol.

MDA-MB-231 cells [3] = test: Lactate production normalized to cell numbers; format: cell-based, human; settings: TEPP-46 vs DMSO, DCA treated
MCF7 cells [4] = test: Lactate production normalized to cell numbers; format: cell-based; settings: TEPP-46 vs DMSO, DCA treated
MCF7 cells [5] = test: Oxygen consumption rate (OCR), Seahorse XF96; format: cell-based; settings: TEPP-46 vs DMSO, DCA treated
Protocol: (§2) The OCR was measured in an XF96 extracellular analyzer (Seahorse Bioscience). 2×10^4 cells per well were seeded into the 96-well plate and incubated in DMEM media with 10% FBS at 37° C. overnight. Next day, the media was changed to analysis media containing 10 mM glucose. The cells were incubated in a CO2-free incubator at 37° C. for 1 hour. Cells were sequentially exposed to oligomycin ([…] FCCP (0.5 μM) and rotenone (0.5 μM). Each point in traces represent the average of measurement from six different wells.

IP3R3 = test: Western blot analysis of IP3R3 protein levels in MCF7 cells; format: cell-based; settings: parental MCF7, TEPP-46 vs DMSO
methyl-PKM2 = test: Western blot analysis of methyl-PKM2 in MCF7 cells; format: cell-based; settings: TEPP-46 vs DMSO
Protocol: Methyl-PKM2 specific anti-peptide antibody was prepared by Genemed Synthesis Inc., TX, using standard methods of peptide synthesis. The KLH-conjugated PKM2 peptide RYR(as)PR(as)[…] (SEQ ID NO: 58), with R445 and R447 asymmetrically dimethylated was synthesized. The peptide corresponding to human PKM2 amino acids 443-454, was used to immunize rabbits. To purify the di-me-PKM2 specific antibody, 10 mg dimethyl peptide (column A) and 10 mg control peptide (non-methyl) (column B) were coupled separately to cyanogen bromide activated agarose beads. 100 ml of antisera was then incubated with the peptide-agarose column A. The unbound antiserum was washed with 1×PBS buffer. After several washes, the antibody was eluted with 0.1 M glycine, pH 2.5; neutralized with 1M […] Tris, pH 8.0. The antibody was stabilized with 0.1% BSA [Elution A]. Elution A was then incubated with column B and then same procedure was followed for elution. The flow through from column B was the dimethyl-specific antibody (methyl-PKM2). The antisera and purified antibody were then tested by enzyme-linked immunosorbent assay (ELISA).

MDA-MB-231 cells [6] = test: Oxygen consumption rate (OCR), Seahorse XF96; format: cell-based, human; settings: TEPP-46 vs DMSO, DCA treated
Protocol: as §2

[7] = test system: MCF7 cells (parental, PKM2 KO, PKM2wt/shPKM1, PKM2mut/shPKM1); test: Cell death by PI staining after IP3Rs inhibition; format: cell-based; settings: MCF7 lines, 3.5 μM XeB, 24 hours
Protocol: (§3) Cell apoptosis and death assays were based on the previously described method. See Cardenas, C., et al., “Selective Vulnerability of Cancer Cells by Inhibition of Ca(2+) Transfer from Endoplasmic Reticulum to Mitochondria,” Cell Rep 14, 2313-2324 (2016). Briefly, cell apoptosis was determined by annexin V/APC and propidium iodide (PI) staining. Cell death was determined by PI staining using flow cytometry.

[8] = test system: MDA-MB-231 cells (parental, PKM2 KO, PKM2wt/shPKM1, PKM2mut/shPKM1); test: Cell death by PI staining after IP3Rs inhibition; format: cell-based, human; settings: MDA-MB-231 lines, 5 μM XeB, 24 hours
Protocol: as §3

[9] = test system: MDA-MB-231 PKM2mut/shPKM1 cells; test: Cell migration of ROS highly producing cells; format: cell-based, human
Protocol: (§4) Cell migration assay was performed as previously described (Wang et al., 2014) using 8.0 μm pore size Transwell inserts (Costar Corp., Cambridge, Mass.). Briefly, 1×10^5 cells in 100 μL serum free media were added into the upper chamber, 500 μL culture media with 20% FBS was in the lower well. After 12 hours culture, removed the cells on the upper surface of the membrane and fixed the migrant cells attached to the lower surface with 3.7% formaldehyde in culture media at 37° C. for 15 min, and then stained for 20 min with 0.05% crystal violet.

[10] = test system: MCF7 PKM2mut/shPKM1, MDA-MB-231 PKM2mut/shPKM1, MCF7 CARM1 KO cells; test: MTT cell growth in ROS highly producing cells; format: cell-based; settings: PKM2 KO, PKM2 KO expressing PKM2mut and CARM1 KO cells
Protocol: (§5) For quantitative proliferation assays, 1000 cells per well were seeded onto 96-well plates. 3-(4,5-dimethylthiazol-2-yl)-2,5-diphenyltetrazolium bromide (MTT) solution (20 μL per well, 4 mg/mL) was added into the wells and incubated 4 hours. After discarding the supernatant, 200 μL DMSO was added and the absorbance value (optical density) was measured at 490 nm on a Victor X5 microplate reader (Perkin Elmer, Waltham, Mass.). In the next 3 days, the absorbance value was measured every day. For 5-Ethynyl-2′-deoxyuridine (EdU) incorporation assay, 3×10^5 cells were seeded into 6-well plate and incubated 10 μM EdU for 1 hour, followed by the procedures described in the Click-iT® EdU cytometry assay kit according to the manufacturer's instructions. Cells were then analyzed on BD LSRII. For clonogenicity assay, 1000 viable transfected cells were placed in six-well plates and maintained in complete medium for 2 weeks. Colonies were washed with PBS and fixed with 3.7% formaldehyde for 15 min at room temperature, and then stained for 20 min with 0.05% crystal violet.

MDA-MB-231 cells [11] = test: Transwell cell migration assay; format: cell-based, human; settings: peptides delivered by UMNP (FIG. 14F)
Protocol: as §4

MCF7 cells [12] = test: MTT cell proliferation assay; format: cell-based; settings: peptides delivered by UMNP (FIG. 14E)
Protocol: as §5

Compound	histone H3 methylation by CARM1 [1]	PKM2 methylation by CARM1 [2]	migration of MDA-MB-231 cells (transwell) (MDA-MB-231 cells [11])	CARM1-mediated methylation of PKM2 [2]	proliferation of MCF7 cells (MTT) (MCF7 cells [12])	further results
O=P(O)(O)OC[C@H]1O[C@](O)(COP(=O)(O)O)[C@@H](O)[C@@H]1O [FBP]	neither TEPP-46 nor FBP treatment affected histone H3 methylation by CARM1	blockage of PKM2 methylation by CARM1				
Cn1c2cc([S+](C)[O-])sc2c2cnn(Cc3cccc(N)c3)c(=O)c21 (centres unmarked) [TEPP-46]	neither TEPP-46 nor FBP treatment affected histone H3 methylation by CARM1	blockage of PKM2 methylation by CARM1				lactate production (MDA-MB-231 cells [3]): decreasing lactate production; lactate production (MCF7 cells [4]): decreasing lactate production; OCR (MCF7 cells [5]): significantly increased OCR; IP3R3 expression (IP3R3): elevated IP3R3 expression; methyl-PKM2 level in cells (methyl-PKM2): blocking its methylation; OCR (MDA-MB-231 cells [6]): significantly increased OCR
C[C@@H]1CN2CCC[C@H]3CCCCCC[C@H]4CCN5CCC[C@@](O)(CCCCCC[C@@H]1O[C@H]32)[C@H]5O4 [XeB, Xestospongin B]						cell death (vulnerability to IP3Rs inhibition) [7]: PKM2 KO or PKM2^mut cells are more vulnerable to XeB than parental and PKM2^wt cells; cell death (vulnerability to IP3Rs inhibition) [8]: PKM2 KO or PKM2^mut cells are more vulnerable to XeB than parental and PKM2^wt cells
CC1(C)CC(NC(=O)C[P+](c2ccccc2)(c2ccccc2)c2ccccc2)CC(C)(C)N1[O] [mitTEMPO]						cell migration [9]: did not alter cell proliferation and migration; cell proliferation [10]: did not alter cell proliferation and migration
RYRPRAPIIAVT [non-methyl-peptide]			inhibited proliferation of the MCF7 cells (FIG. 14E) and migration of MDA-MB-231 cells	abrogated CARM1-mediated methylation of PKM2	inhibited proliferation of the MCF7 cells	
methyl-peptide: negative control: corresponding peptide with R445 and R447 asymmetrically di-methylated (RY[Arg(Me2a)]P[Arg(Me2a)]APIIAVT; also: R445 and R447 asymmetrically di-methylated)			but not methyl-peptide, inhibited proliferation of the MCF7 cells (FIG. 14E) and migration of MDA-MB-231 cells	but not the control methyl-peptide, abrogated CARM1-mediated methylation of PKM2	but not methyl-peptide, inhibited proliferation of the MCF7 cells	
